# Measurements taken from publication PMC10247784, “Physiological activation of human and mouse bitter taste receptors by bile acids” (Communications Biology, 2023).
# Target: T1, mouse Tas2r144 (Mus musculus, UniProt Q7TQB8)
# T1 construct: expressed in transfected cells; host or cells: HEK293T-Gα16gust44
# Experiment: Calcium imaging assay (FLIPR), HEK293T-Gα16gust44 cells transfected with mouse Tas2r144
# Type: cell-based
# T1 sequence (Q7TQB8 whole entry): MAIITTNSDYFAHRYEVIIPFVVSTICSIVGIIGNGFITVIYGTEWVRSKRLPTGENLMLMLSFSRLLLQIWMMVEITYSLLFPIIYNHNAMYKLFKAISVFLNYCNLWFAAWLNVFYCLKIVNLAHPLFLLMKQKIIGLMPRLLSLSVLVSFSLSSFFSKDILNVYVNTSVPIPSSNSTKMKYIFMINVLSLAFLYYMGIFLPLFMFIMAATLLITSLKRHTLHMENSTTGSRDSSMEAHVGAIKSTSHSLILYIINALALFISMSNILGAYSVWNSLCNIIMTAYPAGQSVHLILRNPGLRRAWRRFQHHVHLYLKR
structure (smiles),measurement,setting,value
"C[C@H](CCC(=O)NCCS(=O)(=O)O)[C@H]1CC[C@H]2[C@@H]3CC[C@@H]4C[C@H](O)CC[C@]4(C)[C@H]3CC[C@]12C [Taurolithocholic Acid, taurolithocholic acid]",RLU,Time 0 s,0 RLU
same,RLU,Time 2 s,14.6538 RLU
same,RLU,Time 4 s,0.2718 RLU
same,RLU,Time 6 s,-11.922 RLU
same,RLU,Time 8 s,1.321 RLU
same,RLU,Time 12 s,10.4417 RLU
same,RLU,Time 14 s,-10.556 RLU
same,RLU,Time 16 s,-6.199 RLU
same,RLU,Time 18 s,24.6697 RLU
same,RLU,Time 18.781 s,60.5615 RLU
same,RLU,Time 20.781 s,-19.5171 RLU
same,RLU,Time 22.781 s,-4.009 RLU
same,RLU,Time 24.781 s,-20.7725 RLU
same,RLU,Time 26.781 s,1.348 RLU
same,RLU,Time 28.781 s,-0.7767 RLU
same,RLU,Time 30.781 s,41.688 RLU
same,RLU,Time 32.781 s,71.1245 RLU
same,RLU,Time 34.781 s,105.382 RLU
same,RLU,Time 36.781 s,151.604 RLU
same,RLU,Time 38.781 s,184.237 RLU
same,RLU,Time 40.781 s,248.501 RLU
same,RLU,Time 42.781 s,269.502 RLU
same,RLU,Time 44.781 s,268.298 RLU
same,RLU,Time 46.781 s,327.359 RLU
same,RLU,Time 48.781 s,341.375 RLU
same,RLU,Time 50.781 s,358.126 RLU
same,RLU,Time 52.781 s,372.318 RLU
same,RLU,Time 54.781 s,375.128 RLU
same,RLU,Time 56.781 s,360.867 RLU
same,RLU,Time 58.781 s,388.738 RLU
same,RLU,Time 60.781 s,413.492 RLU
same,RLU,Time 62.781 s,416.863 RLU
same,RLU,Time 64.781 s,424.583 RLU
same,RLU,Time 66.781 s,428.264 RLU
same,RLU,Time 68.781 s,426.421 RLU
same,RLU,Time 70.781 s,448.262 RLU
same,RLU,Time 72.781 s,417.687 RLU
same,RLU,Time 74.781 s,456.073 RLU
same,RLU,Time 76.781 s,430.589 RLU
same,RLU,Time 78.781 s,445.771 RLU
same,RLU,Time 80.781 s,460.032 RLU
same,RLU,Time 82.781 s,446.511 RLU
same,RLU,Time 84.781 s,409.522 RLU
same,RLU,Time 86.781 s,409.191 RLU
same,RLU,Time 88.781 s,405.957 RLU
same,RLU,Time 90.781 s,381.655 RLU
same,RLU,Time 92.781 s,387.142 RLU
same,RLU,Time 94.781 s,402.42 RLU
same,RLU,Time 96.781 s,404.326 RLU
same,RLU,Time 98.781 s,373.324 RLU
same,RLU,Time 100.781 s,389.827 RLU
same,RLU,Time 102.781 s,378.133 RLU
same,RLU,Time 104.781 s,393.124 RLU
same,RLU,Time 106.781 s,394.729 RLU
same,RLU,Time 108.781 s,385.581 RLU
same,RLU,Time 110.781 s,380.059 RLU
same,RLU,Time 112.781 s,389.586 RLU
same,RLU,Time 114.781 s,357.6 RLU
same,RLU,Time 116.781 s,386.704 RLU
same,RLU,Time 118.781 s,385.665 RLU
same,RLU,Time 120.781 s,364.459 RLU
same,RLU,Time 122.781 s,361.618 RLU
same,RLU,Time 124.781 s,373.746 RLU
same,RLU,Time 126.781 s,327.57 RLU
same,RLU,Time 128.781 s,359.155 RLU
same,RLU,Time 130.781 s,325.368 RLU
same,RLU,Time 132.781 s,293.828 RLU
same,RLU,Time 134.781 s,312.409 RLU
same,RLU,Time 136.781 s,298.284 RLU
same,RLU,Time 137.578 s,290.936 RLU
same,RLU,Time 143.578 s,296.494 RLU
same,RLU,Time 149.578 s,267.674 RLU
same,RLU,Time 155.578 s,285.393 RLU
same,RLU,Time 161.578 s,243.081 RLU
same,RLU,Time 167.578 s,210.334 RLU
same,RLU,Time 173.578 s,225.862 RLU
same,RLU,Time 179.578 s,201.092 RLU
same,RLU,Time 185.578 s,199.988 RLU
same,RLU,Time 191.578 s,157.165 RLU
same,RLU,Time 197.578 s,150.89 RLU
same,RLU,Time 203.578 s,157.65 RLU
same,RLU,Time 209.578 s,119.607 RLU
same,RLU,Time 215.578 s,114.651 RLU
same,RLU,Time 221.578 s,111.289 RLU
same,RLU,Time 227.578 s,125.554 RLU
same,RLU,Time 233.578 s,124.837 RLU
same,RLU,Time 239.578 s,148.185 RLU
same,RLU,Time 245.578 s,121.449 RLU
same,RLU,Time 293.578 s,139.355 RLU
same,RLU,Time 299.578 s,114.827 RLU
same,RLU,Time 305.578 s,107.043 RLU
same,RLU,Time 311.578 s,92.604 RLU
same,RLU,Time 317.578 s,88.3008 RLU
same,RLU,Time 323.578 s,90.2384 RLU
same,RLU,Time 329.578 s,71.9932 RLU
same,RLU,Time 335.578 s,67.9746 RLU
same,RLU,Time 341.578 s,66.5352 RLU
same,RLU,Time 347.578 s,80.5392 RLU
same,RLU,Time 353.578 s,85.9834 RLU
same,RLU,Time 359.578 s,89.3996 RLU
same,Activation threshold concentration Tas2r144,p < 0.01 vs empty vector,3 µM
